Results from patent US20040171691A1, “Propofol with cysteine” (Transform Pharmaceuticals, Inc., priority 2002, published 2004).

Tested on: microorganisms
Test: Antimicrobial effectiveness, overall conclusion over the four USP test organisms
Format: cell-based
Conditions: after adventitious, extrinsic contamination
Description: Tables 2 through 5 compare the antimicrobial effectiveness of the cysteinate HCl formulation with that of Diprivan® and generic propofol formulation, as well as unpreserved Intralipid®.

In the case of Cl.N[C@@H](CS)C(=O)O [cysteine/cysteinate HCl, Cysteine HCl], the “time for which significant growth of microorganisms is prevented” value is reported as “at least 24 hours”.
